Assay results published in PubChem BioAssay AID272 (DTP/NCI, 2004).
“And” between values parts separate entries of the source, which are not always exact repeats. Identical values can stand only once. Records with an inconclusive call do not appear.

Test system: Lewis lung carcinoma i.m., BDF1 mice, T/C %
Test: NCI In Vivo Anticancer Drug Screen. Data for tumor model Lewis Lung Carcinoma (intramuscular) in B6D2F1 (BDF1) mice
Summary of the method: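 Value is the ratio of a treated-group measurement (T) to the matching vehicle-control measurement (C), using either survival or tumour size in mice bearing transplanted tumours.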

[1] = endpoint: median survival time, dose: 1.0 mg/kg/injection, schedule: Q01DX011 (ip), vehicle: saline with Tween-80, higher = longer survival
[2] = endpoint: median survival time, dose: 2.0 mg/kg/injection, schedule: Q01DX011 (ip), vehicle: saline with Tween-80, higher = longer survival

N=[N+]=CC(=O)CCC(NC(=O)C(CCC(=O)C=[N+]=N)NC(=O)CCC(N)C(=O)O)C(=O)O (stereo not drawn)
T/C (endpoint: mean tumor weight, dose: 7.5 micrograms/kg/injection, schedule: Q01DX011 (ip), vehicle: water, higher = larger tumour): 63 % of control | T/C (endpoint: mean tumor weight, dose: 15.0 micrograms/kg/injection, schedule: Q01DX011 (ip), vehicle: water, higher = larger tumour): 66 % of control | T/C (endpoint: mean tumor weight, dose: 30.0 micrograms/kg/injection, schedule: Q01DX011 (ip), vehicle: water, higher = larger tumour): 60 % of control | T/C (endpoint: mean tumor weight, dose: 60.0 micrograms/kg/injection, schedule: Q01DX011 (ip), vehicle: water, higher = larger tumour): 63 % of control | T/C (endpoint: median survival time, dose: 0.1 mg/kg/injection, schedule: Q01DX011 (ip), vehicle: saline, higher = longer survival): 88 % of control and 101 % of control | T/C (endpoint: median survival time, dose: 0.2 mg/kg/injection, schedule: Q01DX011 (ip), vehicle: saline, higher = longer survival): 106 % of control | T/C (endpoint: median survival time, dose: 0.4 mg/kg/injection, schedule: Q01DX011 (ip), vehicle: saline, higher = longer survival): 101 % of control and 103 % of control | T/C (endpoint: median survival time, dose: 0.8 mg/kg/injection, schedule: Q01DX011 (ip), vehicle: saline, higher = longer survival): 87 % of control | T/C (endpoint: median survival time, dose: 1.6 mg/kg/injection, schedule: Q01DX011 (ip), vehicle: saline, higher = longer survival): 87 % of control | T/C (endpoint: median survival time, dose: 7.5 micrograms/kg/injection, schedule: Q01DX011 (ip), vehicle: water, higher = longer survival): 104 % of control | T/C (endpoint: median survival time, dose: 12.5 micrograms/kg/injection, schedule: Q01DX009 (ip), vehicle: Klucel (hydroxypropylcellulose) (HPC), higher = longer survival): 97 % of control | T/C (endpoint: median survival time, dose: 15.0 micrograms/kg/injection, schedule: Q01DX011 (ip), vehicle: water, higher = longer survival): 106 % of control | T/C (endpoint: median survival time, dose: 25.0 micrograms/kg/injection, schedule: Q01DX009 (ip), vehicle: Klucel (hydroxypropylcellulose) (HPC), higher = longer survival): 98 % of control | T/C (endpoint: median survival time, dose: 30.0 micrograms/kg/injection, schedule: Q01DX011 (ip), vehicle: water, higher = longer survival): 97 % of control | T/C (endpoint: median survival time, dose: 50.0 micrograms/kg/injection, schedule: Q01DX009 (ip), vehicle: Klucel (hydroxypropylcellulose) (HPC), higher = longer survival): 90 % of control | T/C (endpoint: median survival time, dose: 60.0 micrograms/kg/injection, schedule: Q01DX011 (ip), vehicle: water, higher = longer survival): 102 % of control | T/C (endpoint: median survival time, dose: 100.0 micrograms/kg/injection, schedule: Q01DX009 (ip), vehicle: Klucel (hydroxypropylcellulose) (HPC), higher = longer survival): 98 % of control

Cn1c(Cl)nc2c(Cl)nc(Cl)nc21
T/C [1]: 102 % of control | T/C [2]: 106 % of control | T/C (endpoint: median survival time, dose: 4.0 mg/kg/injection, schedule: Q01DX011 (ip), vehicle: saline with Tween-80, higher = longer survival): 102 % of control | T/C (endpoint: median survival time, dose: 8.0 mg/kg/injection, schedule: Q01DX011 (ip), vehicle: saline with Tween-80, higher = longer survival): 104 % of control | T/C (endpoint: median survival time, dose: 16.0 mg/kg/injection, schedule: Q01DX011 (ip), vehicle: saline with Tween-80, higher = longer survival): 110 % of control

Cc1c(N)nc(C(CC(N)=O)NCC(N)C(N)=O)nc1C(=O)NC(C(=O)NC(C)C(O)C(C)C(=O)NC(C(=O)NCCc1nc(-c2nc(C(=O)NCCC[S+](C)C)cs2)cs1)C(C)O)C(OC1OC(CO)C(O)C(O)C1OC1OC(CO)C(O)C(OC(N)=O)C1O)c1cnc[nH]1 (stereo not drawn)
T/C (endpoint: median survival time, dose: 6.5 mg/kg/injection, schedule: Q01DX011 (ip), vehicle: saline, higher = longer survival): 152 % of control | T/C (endpoint: median survival time, dose: 10.8 mg/kg/injection, schedule: Q01DX011 (ip), vehicle: saline, higher = longer survival): 168 % of control | T/C (endpoint: median survival time, dose: 18.0 mg/kg/injection, schedule: Q01DX011 (ip), vehicle: saline, higher = longer survival): 166 % of control

CCN(CC)CCOC(=O)c1ccccc1N(c1ccccc1)c1ccccc1
T/C (endpoint: mean tumor weight (est.), dose: 62.5 mg/kg/injection, schedule: Q01DX011 (ip), vehicle: Klucel (hydroxypropylcellulose) (HPC), higher = larger tumour): 67 % of control | T/C (endpoint: mean tumor weight (est.), dose: 125.0 mg/kg/injection, schedule: Q01DX011 (ip), vehicle: Klucel (hydroxypropylcellulose) (HPC), higher = larger tumour): 59 % of control | T/C (endpoint: median survival time, dose: 62.5 mg/kg/injection, schedule: Q01DX011 (ip), vehicle: Klucel (hydroxypropylcellulose) (HPC), higher = longer survival): 98 % of control

Cc1n(Cc2ccccc2)c2c([n+]1C)C(=O)c1ccccc1C2=O
T/C (endpoint: mean tumor weight (est.), dose: 0.13 mg/kg/injection, schedule: Q01DX011 (ip), vehicle: saline with Tween-80, higher = larger tumour): 48 % of control | T/C (endpoint: mean tumor weight (est.), dose: 0.25 mg/kg/injection, schedule: Q01DX011 (ip), vehicle: saline with Tween-80, higher = larger tumour): 50 % of control | T/C (endpoint: mean tumor weight (est.), dose: 0.5 mg/kg/injection, schedule: Q01DX011 (ip), vehicle: saline with Tween-80, higher = larger tumour): 31 % of control | T/C (endpoint: mean tumor weight (est.), dose: 1.0 mg/kg/injection, schedule: Q01DX011 (ip), vehicle: saline with Tween-80, higher = larger tumour): 36 % of control | T/C (endpoint: mean tumor weight (est.), dose: 2.0 mg/kg/injection, schedule: Q01DX011 (ip), vehicle: saline with Tween-80, higher = larger tumour): 43 % of control | T/C (endpoint: median survival time, dose: 0.13 mg/kg/injection, schedule: Q01DX011 (ip), vehicle: saline with Tween-80, higher = longer survival): 110 % of control | T/C (endpoint: median survival time, dose: 0.25 mg/kg/injection, schedule: Q01DX011 (ip), vehicle: saline with Tween-80, higher = longer survival): 100 % of control | T/C (endpoint: median survival time, dose: 0.5 mg/kg/injection, schedule: Q01DX011 (ip), vehicle: saline with Tween-80, higher = longer survival): 106 % of control | T/C [1]: 89 % of control | T/C [2]: 89 % of control
